# Assay results published in article PMC10508484, “Development and application of a PBPK modeling strategy to support antimalarial drug development” (CPT: Pharmacometrics & Systems Pharmacology, 2023).
# Several values for one entry are separate records, joined by “and”; a condition that tells them apart may be missing. Equal entries are not always repeated. Where two headings read alike, the source gives them in different places.
# Legend:
# [1] = 2020 1, cited from earlier work
# [2] = measured (0.4 mg/mL protein where stated); ref Charman et al., 2020 1; cited from earlier work
# [3] = Fraction unbound in human liver microsomes (fumic); conditions: extrapolated from value measured at 0.4 mg/mL to 0.1 mg/mL, method of Austin et al., 2002
# [4] = lumefantrine: ACD labs value; ref Charman et al., 2020 1; cited from earlier work
# [5] = cited from earlier work
# [6] = cited from earlier work; remark: listed apart in the source
# [7] = amodiaquine 600 mg SD (Day 6) + trimethoprim 160 mg QD (7 Days); ref Akande et al., 2015 1; cited from earlier work
# in vitro = conditions: human, plasma
# [8] = cited from earlier work; for CL renal: PBPK input, ref amodiaquine, DEAQ Winstanley et al., atovaquone Rolan et al., 1997 14, azithromycin Lalak et al., 1993 23, carboxyprimaquine Mihaly et al., 1985 26, chloroquine Walker et al., 1987 29, DHA EMA Website, 44, doxycycline Raghuram et al., 1982 48, Nguyen et al., 1989 49, mefloquine Schwartz et al., 1982 57, primaquine White, 1985 62, pyrimeth; for CL renal / CL PO: 1987 9, proguanil Jeppesen et al., 1997 34; for CL PO: clinically observed oral (in vivo) clearance, pyronaridine: blood, ref amodiaquine Winstanley et al., DEAQ Akande et al., 2015 8, Scarsi et al., 2014 35, Tarning et al., 2012 36, Orrell et al., 2008 37, DHA Na-Bangchang et al., 2004 42, lumefantrine Lefevre et al., 2002 52, Hoglund et al., 2015 53, mefloquine Charles et al., 2007 56, pyronaridine Jittama
# [9] = PBPK simulation of drug-drug interactions (Simcyp V19); parameters: species or system human; conditions: DDI of the respective line of Table S3; for AUC ratios Sim/Obs: ratio of simulated to clinically observed AUC ratio
# Description: Here, we provide three example applications where the available PBPK models were used to address questions relating to DDI assessment. […] Additional simulation methods are provided in Appendix S1.
# All simulations, including the ones performed for the applications, were run using Version 19 of the Simcyp population-based PBPK simulator (Simcyp (Certara), Sheffield, UK) and unless stated otherwise, input parameters for all drugs are as specified (Supplementary Information Table S1). All simulations were run using ten virtual trials that were matched as closely as possible to the clinical study volunteers in terms of the number of subjects, their age, the proportion of males/females and according to the same study design.
# Caco-2 cells = conditions: calibrated against propranolol; plasma as medium for atovaquone and piperaquine; ref Charman et al., 2020 1; cited from earlier work
# [10] = In vitro flags for victim and perpetrator properties conferring DDI liability; assay type: in vitro ADME, human; conditions: in vitro flag, mainly based on in vitro determinations
# CYP3A4 = CYP3A4 (Homo sapiens, UniProt P08684)
# CYP3A4, sequence (P08684 whole entry): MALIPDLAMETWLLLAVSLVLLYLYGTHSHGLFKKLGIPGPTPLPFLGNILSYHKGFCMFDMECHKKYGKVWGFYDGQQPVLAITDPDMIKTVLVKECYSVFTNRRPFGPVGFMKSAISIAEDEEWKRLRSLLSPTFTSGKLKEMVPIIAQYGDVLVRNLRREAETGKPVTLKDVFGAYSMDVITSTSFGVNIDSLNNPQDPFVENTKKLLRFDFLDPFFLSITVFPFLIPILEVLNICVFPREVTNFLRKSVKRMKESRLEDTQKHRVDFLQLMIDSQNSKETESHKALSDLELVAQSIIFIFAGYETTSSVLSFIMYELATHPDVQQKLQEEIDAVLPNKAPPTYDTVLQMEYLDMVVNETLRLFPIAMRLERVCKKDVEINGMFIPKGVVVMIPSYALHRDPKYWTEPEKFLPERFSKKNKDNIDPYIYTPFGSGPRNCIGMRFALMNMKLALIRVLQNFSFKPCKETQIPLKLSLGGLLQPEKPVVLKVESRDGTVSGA
# Description: (§1) In nearly all cases the fraction of systemic elimination metabolised by a given enzyme (fm) determined in vitro was unavailable in the literature.
# [11] = Hepatic / HLM intrinsic clearance, enzyme not defined
# CYP2C19 = CYP2C19 (Homo sapiens, UniProt P33261); experiment: Metabolism by CYP2C19 (CLint, fm); assay type: in vitro ADME
# CYP2C19, sequence (P33261 whole entry): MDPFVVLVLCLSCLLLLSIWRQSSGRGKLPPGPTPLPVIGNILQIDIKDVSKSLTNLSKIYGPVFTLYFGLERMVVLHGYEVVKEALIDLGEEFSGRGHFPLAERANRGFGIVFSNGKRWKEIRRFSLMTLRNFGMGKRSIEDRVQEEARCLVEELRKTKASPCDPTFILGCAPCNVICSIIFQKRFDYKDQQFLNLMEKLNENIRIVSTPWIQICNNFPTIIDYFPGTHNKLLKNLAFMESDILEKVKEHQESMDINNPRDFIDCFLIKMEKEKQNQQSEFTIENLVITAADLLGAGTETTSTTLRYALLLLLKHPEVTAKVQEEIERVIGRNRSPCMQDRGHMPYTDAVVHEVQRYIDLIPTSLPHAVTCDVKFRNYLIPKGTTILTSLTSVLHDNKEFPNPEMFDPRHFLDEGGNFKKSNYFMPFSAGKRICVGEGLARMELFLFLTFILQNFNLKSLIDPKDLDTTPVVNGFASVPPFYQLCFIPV
# Description: as §1
# [12] = 200 mg SD, 0-inf, ref Wattanagoon et al., 1987 17
# [13] = from observed differences in metabolite formation, Jeppesen et al., 1997
smiles,measurement,setting,value
"CC1(C)N=C(N)N=C(N)N1c1ccc(Cl)cc1 [Cycloguanil, cycloguanil]",B:P,[1]; ref Charman et al.,0.71
same,fumic,[2],0.72
same,fumic,[3],0.911
same,Log D pH 7.4,[4],1.1
same,fu,"[5]; PBPK input, ref Charman et al., 2020 1",0.75
same,AUC Obs,"[6]; 200 mg QD (Day 14) EM, 0-24 h, ref Helsby et al., 1993 19",3170 ng·h/mL
same,AUC Obs,"[6]; 200 mg QD (Day 14) PM, 0-24 h, ref Helsby et al., 1993 19",1190 ng·h/mL
same,AUC Obs,"[6]; 200 mg SD EM, 0-72 h, ref Helsby et al., 1993 19",2350 ng·h/mL
same,AUC Obs,"[6]; 200 mg SD PM, 0-72 h, ref Helsby et al., 1993 19",983 ng·h/mL
same,AUC Obs,[6]; [12],661 ng·h/mL
same,Cmax Obs,"[6]; 200 mg SD, ref Wattanagoon et al., 1987 17",41 ng/mL
"CCNCc1cc(Nc2ccnc3cc(Cl)ccc23)ccc1O [DEAQ, desethylamodiaquine]",B:P,"[1]; PBPK input, ref artemether Colussi et al., 1999 11, atovaquone Rolan et al., 1997 14, Beerahee, 1999 16, Charman et al., azithromycin Pene Dumitrescu et al., 2013 21, DEAQ Winstanley et al., 1987 9, proguanil weighted mean Helsby et al., 1993 61, Wattanagoon et al., 1987 63",3
same,AUC ratio Obs,[7],0.874
same,Cmax ratio Obs,[7],0.75
same,fraction unbound,in vitro,0.26
same,CL renal,[8],1.4 L/h
same,CL PO,[8],32 L/h
same,AUC ratios Sim/Obs,[9],0.89
same,Cmax ratios Sim/Obs,[9]; ratio of simulated to clinically observed Cmax ratio,1.00
same,Main binding protein,"[5]; ref amodiaquine, DEAQ Hietala, 2009 2, atovaquone Nixon et al., 2013 13, DHA Batty et al., 2004 41, mefloquine, tafenoquine (also AGP) Zsila et al., 2008 54",AGP
same,AUC Obs,"[6]; 600 mg QD (Day 3), 0-96 h, ref Scarsi et al., 2014 1",14571 ng·h/mL
same,Cmax Obs,"[6]; 600 mg QD (Day 3), ref Scarsi et al., 2014 1",495 ng/mL
"[H]/N=C(\N/C(=N/[H])Nc1ccc(Cl)cc1)NC(C)C [Proguanil, proguanil]",Caco-2 (Papp A-B),Caco-2 cells,3.5 10-6 cm/s
same,Risk as a perpetrator,[10],CYP2D6 inhibitor
same,Risk as a victim,[10],Substrate of CYP2C19 and CYP3A4
same,fumic,[3],0.66
same,CLint CYP3A4 formation of cycloguanil,CYP3A4,0.013 µL/min/pmol
same,fmCYP3A4,CYP3A4,3%
same,fm additional / undefined metabolism,[11]; human,25%
same,Additional Undefined metabolism,[11]; retrograde calculations,13.46 µL/min/pmol
same,CL renal,[8],26.64 L/h
same,CL PO,[8],86.4 L/h
same,fe (fraction excreted unchanged in urine),[8]; in vivo,36%
same,fmCYP2C19,"CYP2C19; fraction metabolised used in the PBPK model (proguanil: total, all routes)",36%
same,"fmCYP2C19, additional",CYP2C19; [13],9%
same,"fmCYP2C19, formation of CPBG",CYP2C19; [13],8%
same,"fmCYP2C19, formation of cycloguanil",CYP2C19; [13],17%
same,CLint CYP2C19 - additional,CYP2C19; retrograde calculations,1.25 µL/min/pmol
same,CLint CYP2C19-mediated formation of 4-Chlorphenylbiguanide (CPBG),CYP2C19; retrograde calculations,1.07 µL/min/pmol
same,CLint CYP2C19-mediated formation of Cycloguanil,CYP2C19; retrograde calculations from CL PO,2.23 µL/min/pmol
same,AUC ratios Sim/Obs,[9],1.01 and 0.80
same,Cmax Obs,"[6]; 200 mg QD (Day 14) EM, ref Helsby et al., 1993 19",190 ng/mL
same,Cmax Obs,"[6]; 200 mg QD (Day 14) PM, ref Helsby et al., 1993 19",338 ng/mL
same,AUC Obs,"[6]; 200 mg SD EM, 0-inf, ref Helsby et al., 1990 18",3396 ng·h/mL
same,Cmax Obs,"[6]; 200 mg SD EM, ref Helsby et al., 1993 19",209 ng/mL
same,AUC Obs,"[6]; 200 mg SD PM, 0-inf, ref Helsby et al., 1990 18",6563 ng·h/mL
same,Cmax Obs,"[6]; 200 mg SD PM, ref Helsby et al., 1993 19",273 ng/mL
same,Cmax Obs,"[6]; 200 mg SD, dose corrected to free base for simulations, ref Wattanagoon et al., 1987 17",170 ng/mL
same,AUC Obs,[6]; [12],2975 ng·h/mL
